Results as given in patent US6451861B1, “Reduction of gastro-intestinal bacterial load” (priority 1999, dated 2002).

Experiments:
[1] = system: E. coli strains AW574 or AW405; experiment: Lysis of E. coli by terpenes (galactosidase activity, ONPG, 420 nm)
Description: Lysis of the cell membrane was monitored by the determination of galactosidase activity. […] This enzyme is inducible in the presence of isopropyl-1-thiogalactosidase (IPTG) and assayed colorimetricaly with substrate o-nitro-phenyl-B-D-galactoside (ONPG). ONPG is cleaved to release o-nitrophenol with peak absorvance at 420 nm. Since intact E. coli is impermeable to both ONPG and the enzyme, the cells have to be lysed prior to enzymatic assay. Therefore the ability of terpenes to lyse E. coli can be measured with this enzymatic assay and compared to known lysing agents. The procedure used was as follows: E. coli strains AW574 or AW405 were cultured overnight in 10 ml tryptone broth with 1 nM IPTG at 35° C. Cells were allowed to growth after an absorbance equal to 0.9 was reached. Cells were harvested, washed with phosphate buffer and resuspended to an absorbance equal to 0.5. One tenth of a ml of the bacteria culture was added to 0.9 ml of buffer, warmed to 30° C. and then 80 ul of terpenes (85% terpenes and 15% polysorbate-80), 80 ul water (background) or 40 ul chloroform plus 40 ul 1% SDS in water (positive control) were added. After the addition of the lysing agents the tubes were mixed for 10 seconds and 0.2 ml of ONPG (4 mg/ml water) was added, then incubated for 5 minutes. The enzyme activity was stopped with 0.5 ml of 1 M sodium carbonate. After being centrifuged for 3 minutes at 1,500×g, supernatant was transferred to cuvettes and read at 420 nm. The relative degree of lysis caused by terpenes was calculated as follows:
100×(OD terpenes−OD water)/(OD chloroform−OD water)

E. coli = conditions: cited from earlier work

Compound: CC(C)=CCC/C(C)=C/CO [Geraniol]
- Relative lysis % ([1]; Geraniol 3.63 uM, relative to SDS + chloroform = 100%): 2.4%
- Relative lysis % ([1]; Geraniol 363 uM, relative to SDS + chloroform = 100%): 34%
- Relative lysis % ([1]; Geraniol 3,630 uM, relative to SDS + chloroform = 100%): 98%
- Relative lysis % ([1]; Geraniol 36,300 uM, relative to SDS + chloroform = 100%): 96%

Compound: CC(C)=CCCC(C)=CC=O [citral]
- citral concentration in media that reduced the concentration of E. coli (E. coli): more than 0.01%
- citral concentration with bactericidal effect (E. coli; in media): 0.08%

Compound: Polysorbate-80 [reference compound]
- Relative lysis % ([1]; 80 ul Polysorbate-80 alone): 3.2%
